The values below come from US20240025886A1, “INHIBITORS OF IGF2BP1-RNA BINDING” (YISSUM RESEARCH DEVELOPMENT COMPANY OF THE HEBREW …, priority 2020, published 2024).

Several values for one entry are separate records, joined by “and”; a condition that tells them apart may be missing. Equal entries are not always repeated.

For orientation: IC50 means the concentration that inhibits the measured activity by half.

In data set [1] the target is T1, Igf2bp1 binding to Kras 6 RNA (Homo sapiens, UniProt Q9NZI8).
T1 construct: Recombinant full-length Igf2bp1 protein; made in house; host or cells: E. coli BL21(DE3)
The experiment in a line: EMSA, Igf2bp1 with fluorescent Kras 6 RNA. More on the design: dose or concentration left out as unconfirmed. How it is done:
Recombinant Igf2bp1 protein was serially diluted (1:1) starting at an initial concentration of 10,000 nM in 0.75 μg heparin, in a total volume of 13 μL. Fluorescently labelled Kras 6 RNA (750 nM) diluted in reaction buffer (10 mM Tris pH 7.5, 100 mM NaCl, 0.1 mM EDTA, 1 mg/mL tRNA, 0.25% IGEPAL (Sigma), 0.5 mM DTT) was heated to 65° C. for 5 minutes, kept on ice for 1 minute and RNasin (200 U/mL) (ThermoScientific, RiboLock RNase inhibitor) was then added. […] RNA was added to each well protein sample, and after a 30 min incubation at room temperature in the dark, loading dye (3 μL) (30% glycerol, 0.01% bromocresol green) was added to each mixture. For compound inhibition experiments, compounds or DMSO were incubated for 4 hours at 37° C. with the protein prior to adding the RNA. Samples were electrophoresed on native TBE polyacrylamide gels (6% acrylamide/bis-acrylamide 37.5:1, 0.5×TBE) that had been pre-run for 30 min. Gels were run at 120V in 0.5×TBE, at 4° C. in the dark. They were then carefully washed and scanned using a Typhoon FLA9500 imager using Alexa 488 laser and LPB1/2 filter. Igf2bp1-RNA complex formation was quantified using the ImageJ software. Prism6 software was used for curve fitting and KD calculations.
For orientation: Mobility shift assays separate free from complexed probe on a gel.

The target of data set [2] is T1, Igf2bp1 binding to Kras 6 RNA. The experiment in a line: Fluorescence polarization (FP) assay of Igf2bp1 binding to fluorescent Kras 6 RNA. The following applies: FP dose response; read-out: IC50 for inhibition of Igf2bp1 binding to Kras 6 RNA. Here is the method:
For the small molecule screen, compounds were obtained from the collection maintained at the Grand Israel National Center for Personalized Medicine, consisting of molecules purchased from commercial vendors. Labelled RNA (10 nM) was incubated with recombinant Igf2bp1 protein (400 nM) in FAM-RNA buffer (10 mM Tris pH 8.0, 75 mM KCl, 0.5 mM EDTA, 1 mM DTT, 0.0188 U/μL RNAsin, 0.0005 μg/mL heparin, 0.0001 μg/μL tRNA, 0.01% Triton X-100, 3 mM MgCl2, 0.05% IGEPAL) at room temperature for 15 min. […] of this reaction mix was aliquoted with GNF WDII (USA) into wells of 1536 well plates, with a final concentration of […] compound or DMSO. The plates were spun down and read in a BMG Pherastar FS (Germany) plate reader plate reader, in FP mode with a 485/520/520 polarization filter, calibrated to 35 mP for free fluorescein with similar total intensity as experimental samples. […]
To determine the quality of the inventors screening assay, the Z′ factor for each plate was calculated with a Z′ factor greater than 0.5 indicating a robust assay suitable for high throughput screening. Compounds that altered the overall fluorescence intensity compared to controls were considered auto florescence and excluded from further analysis. […] Any small molecule that causes a change of more than three standard deviations from the mean is determined appropriate for further investigation.
In general terms: Polarisation of emitted light reports the rotation of a fluorescent probe.

Data set [3] concerns the target T2, Igf2bp1 (Homo sapiens, UniProt Q9NZI8).
T2 construct: Recombinant full-length Igf2bp1 protein; made in house; host or cells: E. coli BL21(DE3)
Nature of the data set: Microscale thermophoresis (MST) binding to full-length Igf2bp1. The following applies: MST. Here is the method: Recombinant full-length Igf2bp1 protein was labelled with RED-tris-NTA dye using a Monolith NT His-Tag Labelling Kit (NanoTemper) while RRM12, KH12 and KH34 di-domain peptides were labelled using the Protein Labeling Kit RED NHS 2nd generation (NanoTemper). Labelled proteins were spun at 15,000 g for 5 min to eliminate aggregates. All samples were 2× labelled protein mix of Igf2bp1 (200 nM) in PBST and were combined (1:1) with serial dilutions of compound or Kras6 RNA in binding buffer (10 mMTris pH=7.5, 100 mM NaCl, 0.1 mM EDTA, 0.06% IPEGAL, 0.02 μg/μL tRNA, 2 mM DTT, 0.1 μg/μL heparin) in final volume of 20 μL, room temperature for 15 min. Samples were then loaded into standard capillaries (NanoTemper) and read in the Monolith NT.115 scanner (NanoTemper) using the red filter with reading conditions of 95% LED power and 40% MST power, 5 sec fluorescence before, 30 sec MST on, 5 sec fluorescence after and 25 sec delay between samples. Results were analyzed using the MO Control software (NanoTemper) for curve fitting to KD.

Data set [4] can be described thus: Cell proliferation, compound 15 (cell line not stated). Format: cell-based.
Data set [5] relates to H1299 cells. The experiment in a line: Wound healing (cell migration) assay, H1299 cells. The class given is cell-based, human. The following applies: H1299 cells; 10 μM compound 15 vs 20 μM 7773 in FIGS. 20A-B. Here is the method: Cells were seeded in 96 IncuCyte® ImageLock plates (20×10^3 cells per well) for 24 hours, to a near confluency of 95%, before the addition of increasing concentrations of compound. After a further 24 hours, wells were scratched using the IncuCyte® 96-well WoundMaker Tool, and the cells cultured for an additional 48 hours using the IncuCyte® S3 Live-Cell Analysis System (Essen BioScience). The plate was imaged at increments of 120 minutes for a period of 48 hours, and then analyzed for relative wound healing.

Data set [6] addresses Igf2bp1-cMyc RNA interaction (Homo sapiens, UniProt Q9NZI8). The following applies: fluorescence polarization; cited from earlier work.
Data set [7] deals with T3, La protein (UniProt P05455 P05455:1-408).
T3 sequence: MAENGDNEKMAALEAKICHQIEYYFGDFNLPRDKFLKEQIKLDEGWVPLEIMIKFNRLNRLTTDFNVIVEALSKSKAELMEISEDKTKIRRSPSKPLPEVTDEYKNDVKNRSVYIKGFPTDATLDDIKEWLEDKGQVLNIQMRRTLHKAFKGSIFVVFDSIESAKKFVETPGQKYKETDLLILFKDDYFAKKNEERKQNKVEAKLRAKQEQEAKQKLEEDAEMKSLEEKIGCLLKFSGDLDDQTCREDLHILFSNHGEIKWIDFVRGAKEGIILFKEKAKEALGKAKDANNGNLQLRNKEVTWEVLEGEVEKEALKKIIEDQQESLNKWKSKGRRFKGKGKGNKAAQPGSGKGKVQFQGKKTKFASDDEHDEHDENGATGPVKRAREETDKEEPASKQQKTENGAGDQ
Nature of the data set: EMSA; not affected by 7773. The following applies: label: 5'-6FAM.

T1 sequence (Q9NZI8 whole entry): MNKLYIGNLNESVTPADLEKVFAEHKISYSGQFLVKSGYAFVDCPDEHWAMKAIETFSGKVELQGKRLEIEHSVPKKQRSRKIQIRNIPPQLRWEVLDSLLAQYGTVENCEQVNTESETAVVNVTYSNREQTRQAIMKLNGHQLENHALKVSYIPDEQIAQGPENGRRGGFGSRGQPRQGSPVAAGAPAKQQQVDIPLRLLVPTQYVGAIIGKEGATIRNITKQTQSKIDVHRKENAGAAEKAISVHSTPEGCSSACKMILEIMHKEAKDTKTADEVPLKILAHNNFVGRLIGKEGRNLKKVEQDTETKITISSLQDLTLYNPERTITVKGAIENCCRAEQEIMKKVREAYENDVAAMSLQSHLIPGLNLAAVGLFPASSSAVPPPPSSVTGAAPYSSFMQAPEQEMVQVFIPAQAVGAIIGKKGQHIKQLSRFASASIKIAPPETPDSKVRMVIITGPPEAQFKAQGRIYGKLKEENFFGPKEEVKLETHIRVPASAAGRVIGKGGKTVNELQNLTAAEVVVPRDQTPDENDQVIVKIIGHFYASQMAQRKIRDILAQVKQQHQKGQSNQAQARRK
T2 sequence (Q9NZI8 whole entry): as above
Igf2bp1-cMyc RNA interaction, sequence (Q9NZI8 whole entry): as above

Turning to `O=C(c1cccc(-n2cnnn2)c1)N1CCCC(Nc2ccc3c(c2)OCO3)C1` (stereo not shown) [Compound 393, reference compound], in data set [1], the “Inhibition of Igf2bp1 binding to Kras 6 RNA (gel shift)” value is given as “lower, but observable, inhibition of RNA binding”. Moreover, the IC50 in data set [2] is ~90 µM and > 100 µM. The “Affinity for Igf2bp1 relative to 7773” value in data set [3] is given as “approximately seven times lower affinity”. As for `O=C(c1ccc(Cn2c(CO)cc3ccccc32)cc1)N1CCN(c2ccc3c(c2)OCO3)CC1` [Compound 15], the Cell proliferation entry in data set [4] is “inhibition of cell proliferation”. Further, the “Efficiency at inhibiting wound healing compared to Compound 7773” value in data set [5] is reported as “over 10 fold”.

Consider `NC(=O)c1ccccc1N=Cc1ccc(Br)s1` [BTYNB], for which the “Igf2bp1-cMyc RNA interaction in vitro” value in data set [6] is recorded as “inhibited”. As to CCCGUUGCUUUUCCUCUGGGAAGGAUGGCGCACGCUGGG (ssRNA) [Bcl2 RNA oligo], in data set [7], the binding result was “binds”.
